Bounds are passed on as bounds.

The first test has as its target T1, α4β7 (Homo sapiens, UniProt P13612+P26010).
T1 construct: endogenous in cells; host or cells: RPMI 8866 cells
T1 sequence (P13612 34-1032): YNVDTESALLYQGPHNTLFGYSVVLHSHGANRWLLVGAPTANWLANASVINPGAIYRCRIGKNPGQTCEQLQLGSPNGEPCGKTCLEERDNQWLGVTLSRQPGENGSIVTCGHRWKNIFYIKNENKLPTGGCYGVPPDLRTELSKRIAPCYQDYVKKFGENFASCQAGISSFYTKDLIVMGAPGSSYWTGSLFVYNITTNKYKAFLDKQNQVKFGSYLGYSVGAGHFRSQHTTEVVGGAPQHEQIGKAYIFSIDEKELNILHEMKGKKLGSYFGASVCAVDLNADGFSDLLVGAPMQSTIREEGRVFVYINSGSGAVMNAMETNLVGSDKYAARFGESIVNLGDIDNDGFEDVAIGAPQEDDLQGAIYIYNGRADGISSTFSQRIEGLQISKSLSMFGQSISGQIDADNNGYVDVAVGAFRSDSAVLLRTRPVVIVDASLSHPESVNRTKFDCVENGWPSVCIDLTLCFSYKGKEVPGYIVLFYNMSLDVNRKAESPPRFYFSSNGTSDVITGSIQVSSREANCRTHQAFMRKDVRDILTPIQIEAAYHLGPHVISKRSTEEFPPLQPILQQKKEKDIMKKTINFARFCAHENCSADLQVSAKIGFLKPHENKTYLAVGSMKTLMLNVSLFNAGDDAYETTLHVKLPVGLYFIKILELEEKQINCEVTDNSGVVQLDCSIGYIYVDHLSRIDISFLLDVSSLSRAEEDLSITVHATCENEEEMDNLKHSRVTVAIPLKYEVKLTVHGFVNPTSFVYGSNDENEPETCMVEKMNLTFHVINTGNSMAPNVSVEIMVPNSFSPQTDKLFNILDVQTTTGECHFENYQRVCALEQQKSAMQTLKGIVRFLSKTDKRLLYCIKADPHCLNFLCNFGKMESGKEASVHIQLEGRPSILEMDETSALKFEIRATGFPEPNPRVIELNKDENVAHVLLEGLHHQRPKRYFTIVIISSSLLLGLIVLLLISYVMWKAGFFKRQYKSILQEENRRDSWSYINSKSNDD
T1 sequence (P26010 20-798): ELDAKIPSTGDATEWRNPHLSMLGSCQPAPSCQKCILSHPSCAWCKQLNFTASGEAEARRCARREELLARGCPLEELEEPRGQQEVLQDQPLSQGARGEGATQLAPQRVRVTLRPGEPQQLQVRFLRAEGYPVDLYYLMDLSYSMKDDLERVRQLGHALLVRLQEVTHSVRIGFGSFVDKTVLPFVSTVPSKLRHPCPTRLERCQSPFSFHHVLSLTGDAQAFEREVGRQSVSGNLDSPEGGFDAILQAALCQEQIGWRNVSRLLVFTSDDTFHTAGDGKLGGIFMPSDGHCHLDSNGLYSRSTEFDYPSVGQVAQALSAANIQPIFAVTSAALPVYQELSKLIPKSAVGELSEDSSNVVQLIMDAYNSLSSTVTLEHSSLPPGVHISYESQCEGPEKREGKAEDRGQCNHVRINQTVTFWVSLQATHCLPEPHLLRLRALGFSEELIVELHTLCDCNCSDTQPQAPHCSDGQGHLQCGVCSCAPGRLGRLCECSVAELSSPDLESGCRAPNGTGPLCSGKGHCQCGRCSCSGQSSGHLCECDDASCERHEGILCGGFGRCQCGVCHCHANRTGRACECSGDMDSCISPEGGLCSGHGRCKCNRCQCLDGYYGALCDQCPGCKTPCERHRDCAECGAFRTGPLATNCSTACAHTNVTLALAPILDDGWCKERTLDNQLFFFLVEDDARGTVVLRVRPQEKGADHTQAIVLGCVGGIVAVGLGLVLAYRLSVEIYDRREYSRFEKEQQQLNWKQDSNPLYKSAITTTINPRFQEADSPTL
Kind of test: Cell adhesion assay, RPMI8866 cells on MAdCAM coated plates (Example 7). It counts as cell-based. The note with it: RPMI8866 cells adhering to recombinant human MAdCAM; Table 3; read-out: CA Assay (Example 7). As for the experimental part: Three in vitro assays were used to examine the α4β7 mechanistic process used by cells: 1) ligand:receptor affinity, 2) the avidity of those interactions on a cell's surface, and 3) how those interactions fare under an imposing force. In Example 5, a Fluorescence Polarization (FP) assay is used to measure compound activity through binding competition with the fluorescein-labeled peptide. In Example 6, the potency of compounds against α4β7 is measured in the cell-based ligand binding assay (LBA), using RPMI 8866 cells incubated with the compound samples in competition with soluble MAdCAM-1 ligand. In Example 7, activity of compounds is evaluated in a cell adhesion assay that mechanistically tests what occurs in vivo when trafficking cells utilize α4β7 to adhere to MAdCAM-1 expressing HEVs of the gut during the extravasation process. In the cell adhesion assay of Example 7, a MAdCAMI1-(Fc) is coated on plastic, and α4β7 expressing cells (RPMI-8866) are allowed to adhere to the coated surface in the presence of the test compounds. Next, the force of washing with buffer is applied to cells thereby testing the strength of that adhesion. Unattached cells are removed and the remaining adherent cells are quantified.
Example 7 describes a cell adhesion assay.
To each well of a 96 well plate, 100 ug of recombinant human MAdCAM in 100 ul PBS is added and incubated overnight at 4° C. After incubation MAdCAM is removed by aspiration and 200 ul of PBS+1% BSA is added to block the plate for 2 hours at 37° C. and 5% CO2. During this incubation dilution curves of compound are made in 100% DMSO in 96 well V bottom plates. 1.75 ul of diluted compounds are then transferred to a new 96 well U bottom plate containing 20 ul of assay media (phosphate free DMEM+25 mM HEPES+1% BSA). To this an additional 155 ul of assay media is added with mixing by pipetting up and down. This mixture is allowed to incubate for 15 minutes at 37° C. and 5% CO2. After incubation 175 ul of assay media containing 2e6/mL RPMI8866 cells is added to compound containing wells without mixing and plate is allowed to incubate for another 15 minutes at 37° C. and 5% CO2. During this incubation MAdCAM coated plates are removed from incubator and washed twice with 200 ul PBS+0.1% BSA. […] This plate is then incubated at 37° C. and 5% CO2 for 1 hour. After incubation plates are washed twice with 200 ul and once with 50 ul of phenol free RPMI+1% BSA. A final 50 ul of phenol free RPMI+1% BSA is added to wells after last wash. Next 50 ul of Promega cell titer glow is added to the wells. Plate is incubated on shaker for 2 minutes at 200 RPM followed by another 8 minutes off shaker before having the luminescence read on a Biotek Citation 5 plate reader. Raw data is converted to % inhibition compared to bottom of curve and analyzed using a 4-parameter non linear curve in Prism to determine IC50 and IC90.
Turning to `Cc1cc(C)c(-c2cc(C)c(F)c([C@H](CC(=O)O)NC(=O)C(CC(C)C)n3cc(CCN(C)C)c(C(F)(F)F)cc3=O)c2)c(C)c1` (single isomer, unassigned) [AC-P2], the IC50 was less than 5 nM.
As to `Cc1cc(-c2c(C)ccc(F)c2C)cc([C@H](CC(=O)O)NC(=O)C(CC(C)C)n2cc(CCN3CCC3)c(C(F)(F)F)cc2=O)c1F` (single isomer, unassigned) [AF-P2], the IC50 is less than 5 nM.
The same measure, in the same setting: to `COc1ccc(C)c(-c2cc(C)c(F)c([C@H](CC(=O)O)NC(=O)C(CC(C)C)n3cc(CCN4CCC4)c(C(F)(F)F)cc3=O)c2)c1C` (single isomer, unassigned) [AG-P2] belongs less than 5 nM; to `Cc1cc(-c2c(C)cccc2C)cc([C@H](CC(=O)O)NC(=O)C(CC(C)C)n2cc(CCN3CC(F)C3)cc(F)c2=O)c1F` (single isomer, unassigned) [AV-P2], less than 5 nM.
Consider `Cc1cccc(C)c1-c1cc([C@H](CC(=O)O)NC(=O)C(CC(C)C)n2cc(CCN3CCC3)c(C(F)(F)F)cc2=O)c(F)c(C(F)(F)F)c1` (single isomer, unassigned) [G-P2], for which the IC50 was less than 5 nM.

The test is the same for the next values; noted with them: RPMI8866 cells adhering to recombinant human MAdCAM; Table 4 comparative compounds; read-out: CA Assay (Example 7).
As to `Cc1cccc(C)c1-c1cccc([C@H](CC(=O)O)NC(=O)[C@H](CC(C)C)n2cc(CCN(C)C)ccc2=O)c1`, the IC50 fell in the range of 5 to 10 nM.
In the case of `Cc1cccc(C)c1-c1cccc([C@H](CC(=O)O)NC(=O)[C@H](CC(C)C)n2ccc(CCN(C)C)cc2=O)c1`, the IC50 lay in the range of 10 to 50 nM.
Still for that read-out and setting: to `Cc1cccc(C)c1-c1cccc([C@H](CC(=O)O)NC(=O)[C@H](CC(C)C)n2cccc(CCN(C)C)c2=O)c1` belongs more than 100 nM; to `Cc1cccc(C)c1-c1cccc([C@H](CC(=O)O)NC(=O)[C@H](CC(C)C)n2cc(CN3CC[C@@H](F)C3)ccc2=O)c1`, 10 to 50 nM; to `Cc1cccc(C)c1-c1cncc([C@H](CC(=O)O)NC(=O)[C@H](CC(C)C)n2ccc(C(F)(F)F)cc2=O)c1`, 10 to 50 nM.
The same measure, in the same setting: for `Cc1ccn([C@@H](CC(C)C)C(=O)N[C@@H](CC(=O)O)c2cncc(-c3c(C)cccc3C)c2)c(=O)c1` the value was 10 to 50 nM.
In the case of `Cc1cccc(C)c1-c1cncc([C@H](CC(=O)O)NC(=O)C(CC(C)C)n2cc(C(F)(F)F)ccc2=O)c1` (stereo partly drawn), the IC50 is more than 50 nM.
With `Cc1cccc(C)c1-c1cncc([C@H](CC(=O)O)NC(=O)[C@H](CC(C)C)n2cc(CN3CC(F)C3)ccc2=O)c1`, the IC50 was more than 50 nM.
As to `Cc1cccc(C)c1-c1cncc([C@H](CC(=O)O)NC(=O)[C@H](CC(C)C)N2CC[C@@H](C(F)(F)F)CC2=O)c1`, the IC50 is more than 50 nM.
Take `CC(C)C[C@@H](C(=O)N[C@@H](CC(=O)O)c1ccc(-c2ccc(F)cc2)cc1)n1cc(CCN(C)C)c(C(F)(F)F)cc1=O`: the IC50 is more than 500 nM.
With `CC(C)C[C@@H](C(=O)N[C@@H](CC(=O)O)c1ccc(-c2ccc(F)cc2)cc1)n1cc(CCN2CC(F)C2)cc(F)c1=O`, the IC50 was more than 500 nM.
Take `CC(C)C[C@@H](C(=O)N[C@@H](CC(=O)O)c1ccc(-c2ccccc2)cc1)n1cc(CCN2CC(F)C2)cc(F)c1=O`: the IC50 was more than 500 nM.
Consider `Cc1ccccc1-c1cccc([C@H](CC(=O)O)NC(=O)[C@H](CC(C)C)n2cccc(C)c2=O)c1`, for which the IC50 is more than 500 nM.
`CC(C)C[C@@H](C(=O)N[C@@H](CC(=O)O)c1ccc(-c2ccccc2)cc1)n1cc(CCN(C)C)c(C(F)(F)F)cc1=O`: the IC50 is more than 500 nM.
For the compound `Cc1ccccc1-c1cc([C@H](CC(=O)O)NC(=O)[C@H](CC(C)C)n2ccccc2=O)ccc1C`, the IC50 is more than 500 nM.
For `Cc1ccccc1-c1cccc([C@H](CC(=O)O)NC(=O)[C@H](CC(C)C)n2ccncc2=O)c1`, the IC50 was more than 500 nM.
With `COc1cccc(F)c1-c1cccc([C@H](CC(=O)O)NC(=O)[C@H](CC(C)C)n2cnc3ccccc3c2=O)c1`, the IC50 was more than 500 nM.
Still for that read-out and setting: to `Cc1ccccc1-c1cccc([C@H](CC(=O)O)NC(=O)[C@H](CC(C)C)n2ccccc2=O)c1` belongs more than 500 nM; to `Cc1ccccc1-c1cc([C@H](CC(=O)O)NC(=O)C(CC(C)C)n2ccccc2=O)ccn1` (stereo partly drawn), more than 500 nM.
The same measure, in the same setting: to `COc1ccc([C@H](CC(=O)O)NC(=O)C(CC(C)C)n2ccccc2=O)cc1-c1ccccc1C` (stereo partly drawn) belongs more than 500 nM; to `Cc1ccc([C@@H](C(=O)N[C@@H](CC(=O)O)c2cncc(-c3c(C)cccc3C)c2)N2CC(C)CCC2=O)cc1` (stereo partly drawn), more than 500 nM; to `Cc1cccc(C)c1-c1cc([C@H](CC(=O)O)NC(=O)[C@H](CC(C)C)n2ccccc2=O)ccn1`, more than 500 nM.
Regarding `Cc1ccccc1-c1cc([C@H](CC(=O)O)NC(=O)C(CC(C)C)n2ccccc2=O)ccc1C#N` (stereo partly drawn), the IC50 was more than 500 nM.
As for `COC[C@@H](C(=O)N[C@@H](CC(=O)O)c1cccc(-c2c(C)cccc2C)c1)n1ccc(C)cc1=O`, the IC50 is more than 500 nM.
Consider `Cc1cccc(C)c1-c1cncc([C@H](CC(=O)O)NC(=O)[C@H](CC(C)C)n2ccccc2=O)c1`, for which the IC50 was more than 100 nM.
For the compound `Cc1cccc(C)c1-c1cccc([C@H](CC(=O)O)NC(=O)[C@H](CC(C)C)n2cc(CN3CC(F)C3)ccc2=O)c1` [drawing 572], the IC50 is more than 50 nM.
As for `Cc1cccc(C)c1-c1cccc([C@H](CC(=O)O)NC(=O)[C@H](CC(C)C)n2cc(CN3CC(F)C3)ccc2=O)c1` [drawing 577], the IC50 was more than 50 nM.
Still for that read-out and setting: for `Cc1cccc(C)c1-c1cccc([C@H](CC(=O)O)NC(=O)[C@H](CC(C)C)n2cc(CN3CC(F)C3)ccc2=O)c1` [drawing 585] the value was more than 50 nM.

These data come from patent publication US11104661B1, “Inhibiting human integrin (α-4) (β-7)” (Morphic Therapeutic, Inc., priority 2019, dated 2021).
